Tested on: CD14 + CCR2+ inflammatory monocytes
Experiment: CD14+CCR2+ inflammatory monocytes in peripheral blood and bone marrow by flow cytometry
Assay type: in vivo, human
Method: The levels of CD14 + CCR2+ IM or other immune-cell phenotypes in the samples from the core needle biopsy, fine-needle aspirate from primary tumor tissue, bone marrow, and peripheral blood were assessed by flow cytometry. CCL2 levels were determined using whole blood plasma by immunoassay using a luminex-based method. The ex vivo inhibition of CCL2-induced pERK by PF-04136309 was measured in whole blood using flow cytometry. Percentages of CD4+, CD8+, and CD4 + FoxP3+ T cells within CD45+ populations were evaluated by flow cytometry in paired fresh biopsy samples from three patients. Two patients provided both baseline and on-study biopsies, and one patient provided a baseline biopsy only.

Q: Which “Accumulation of CCR2 + CD14+ monocytes in the bone marrow” value (500 mg BID, week 6 post dosing vs baseline) does the source give for `O=C(NCC(=O)N1CC[C@H](N[C@H]2CC[C@@](O)(c3ccc(-c4ncccn4)cn3)CC2)C1)c1cccc(C(F)(F)F)c1` [PF-04136309] here?
A: not observed

Q: And the “Change in absolute counts of CD14 + CCR2+ IM in peripheral blood” value (nearly all patients, baseline to study day 2, sustained through day 15)?
A: drop

From publication PMC7211198, “Phase 1b study of a small molecule antagonist of human chemokine (C-C motif) receptor 2 (PF-04136309) in combination with nab-paclitaxel/gemcitabine in first-line treatment of metastatic pancreatic ductal adenocarcinoma” (Investigational New Drugs, 2019)
